Experimental data taken from US20230382923A1, “FUSED TETRACYCLIC QUINAZOLINE DERIVATIVES AS INHIBITORS OF ERBB2” (EnLiven Therapeutics, Inc., priority 2021, published 2023).

Key:
[1] = target: phosphorylated ERBB2 (pERBB2) (Homo sapiens (Human), UniProt P04626); experiment: Detection of phosphorylated ERBB2 (pERBB2) by ELISA in BT-474 cells; assay type: cell-based; conditions: four hours incubation with compound
Experimental: BT-474 cells were seeded into a 96-well at 2.0*10^4cells/100 μl/well. Compounds were dissolved and serially diluted in DMSO. The compounds were then were added, mixed, and incubated for four hours at 37° C., 5% CO2. […] Following the four hour incubation with compounds, cell lysates were prepared. Plates were centrifuged for 5 min at 3000 RPM, and supernatant was removed from each well. Cells were washed 3 times by resuspension in 150 μl PBS, followed by centrifugation and removal of the supernatant, as above. 100 μl of cell lysis buffer (Boston BioProducts, cat #BP-115D) supplied with 1×complete ULTRA cocktail inhibitor (Thermo ScientificTM, cat #78443) was then added to the washed cells. Cells were incubated with lysis buffer for 1 hour at 4° C., and then stored at -80° C. Enzyme-linked immunosorbent assays (ELISA) were performed to measure phosphorylated ERBB2 levels. […] The next day, plates were washed with PBS+0.05% Tween20 (PBST). 150 μl of 5% BSA blocking solution was added for 1 hour at room temperature, with shaking. Plates were washed with PBST. Cell lysates were thawed and 100 μl of lysate was added to the ELISA plate. The plates were incubated for 2 hours at room temperature, with shaking. ELISA plates were then washed with PBST and 100 μl of an HRP-labeled detection antibody that binds phosphorylated tyrosine (R&D Systems, cat #841913) was added to each well. Plates were incubated for 1 hour at room temperature, with shaking. Plates were then washed with PBST, and 100 μl TMB substrate solution (R&D Systems, cat #DY999) was added. Plate were incubated in the dark for 20 minutes at room temperature. 50 μl of Stop solution (R&D Systems, cat #DY994) (50 μl) was added to each well and mixed. […] The remaining kinase activity by calculated using the following formula: % Relative activity=100×([…]). The low and high control values (“LC” and “HC”) were generated from lysate from wells without cells or with cells treated with 0.1% DMSO, respectively.

[2] = target: phosphorylated EGFR (pEGFR) (Homo sapiens (Human), UniProt P00533); experiment: Detection of phosphorylated EGFR (pEGFR) by AlphaLISA in A431 cells; assay type: cell-based; conditions: A431 cells (10% FBS), 4 hours incubation, EGF 30 ng/mL for 10 minutes
Experimental: […] were performed to measure phosphorylated EGFR levels using A431 cells (10% FBS). A431 (1.0*10^4cells/40 μl/well) cells were seeded in 384 well. Compounds were dissolved in DMSO, serially diluted in DMSO and then were added, mixed, and incubated for 4 hours at 37° C., […]. Following the 4-hours incubation, cells were stimulated for 10 minutes with EGF (Invitrogen, cat #PHG0311) at a final concentration of 30 ng/mL in the incubator. The media was aspirated and cells were lysed in 10 μL lysis buffer with protease and phosphatase inhibitors (PerkinElmer, cat #ALSU-PEGFR-A50K). The plates were placed on a shaker for 5 minutes and then incubated for 30 min at 4° C. for complete lysis. The lysate was transferred to an Optiplate (Perkin Elmer, cat #6007290).
Acceptor mix (PerkinElmer, cat #ALSU-PEGFR-A50K) was prepared just before use and 5 μL was dispensed to all the wells, followed by a 1.5-2 h incubation at room temperature in dark. The donor mix (PerkinElmer, cat #ALSU-PEGFR-A50K) was prepared under low light conditions prior to use and 5 μl of donor mix was added to all the wells under subdued lighting or green filters. The plates were placed on a shaker for 5 min, sealed, and incubated overnight at room temperature in dark. Plates were read on the Envision (PerkinElmer) using standard AlphaLISA settings.
The percentage of inhibition on EGFR phosphorylation was calculated following equation: % Inhibition=100×(LumHC−LumSample)/(LumHC−LumLC). The low and high controls (LC/HC) are generated from lysate from wells with cells treated with DMSO or […] Staurosporine (BioAustralis, cat #BIA-S1086), […]. IC50 values were calculated by fitting the Curve using XLfit (v5.3.1.3), equation 201: Y=Bottom+(Top−Bottom)/(1+10^((LogIC50−X)*HillSlope)).

Chain of phosphorylated ERBB2 (pERBB2) (P04626 23-1255): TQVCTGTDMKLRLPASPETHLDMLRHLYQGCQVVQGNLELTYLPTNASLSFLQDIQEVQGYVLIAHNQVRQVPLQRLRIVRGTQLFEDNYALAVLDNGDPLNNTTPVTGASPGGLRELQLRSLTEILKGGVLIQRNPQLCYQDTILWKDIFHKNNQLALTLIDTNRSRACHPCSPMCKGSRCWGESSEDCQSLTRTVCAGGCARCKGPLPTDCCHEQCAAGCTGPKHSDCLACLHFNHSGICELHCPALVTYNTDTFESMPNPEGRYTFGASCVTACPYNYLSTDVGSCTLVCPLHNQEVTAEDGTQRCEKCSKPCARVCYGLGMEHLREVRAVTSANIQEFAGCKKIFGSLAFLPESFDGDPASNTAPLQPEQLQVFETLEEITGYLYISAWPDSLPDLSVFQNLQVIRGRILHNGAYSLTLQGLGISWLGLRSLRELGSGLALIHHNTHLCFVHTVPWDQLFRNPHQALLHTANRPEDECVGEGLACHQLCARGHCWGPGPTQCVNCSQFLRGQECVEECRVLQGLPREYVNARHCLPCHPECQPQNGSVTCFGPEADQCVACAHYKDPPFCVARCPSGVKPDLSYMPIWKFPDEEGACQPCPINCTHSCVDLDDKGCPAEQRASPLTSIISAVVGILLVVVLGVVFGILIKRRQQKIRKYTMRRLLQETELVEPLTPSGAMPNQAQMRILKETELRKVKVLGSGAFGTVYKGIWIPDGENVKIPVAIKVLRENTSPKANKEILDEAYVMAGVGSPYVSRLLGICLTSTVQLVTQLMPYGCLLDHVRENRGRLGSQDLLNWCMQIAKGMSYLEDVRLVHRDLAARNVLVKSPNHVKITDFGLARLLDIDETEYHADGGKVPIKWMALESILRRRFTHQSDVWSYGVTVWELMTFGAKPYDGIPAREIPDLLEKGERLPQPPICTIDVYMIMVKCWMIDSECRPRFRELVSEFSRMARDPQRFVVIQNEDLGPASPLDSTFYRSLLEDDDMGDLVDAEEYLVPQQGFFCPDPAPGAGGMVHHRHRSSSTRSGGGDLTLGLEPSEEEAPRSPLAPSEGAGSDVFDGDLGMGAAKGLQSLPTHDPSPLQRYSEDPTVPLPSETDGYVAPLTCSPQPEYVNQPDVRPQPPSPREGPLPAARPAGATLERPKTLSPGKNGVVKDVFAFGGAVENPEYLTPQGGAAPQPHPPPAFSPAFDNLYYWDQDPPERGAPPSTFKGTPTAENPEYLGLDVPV
Chain of phosphorylated EGFR (pEGFR) (P00533 25-1210): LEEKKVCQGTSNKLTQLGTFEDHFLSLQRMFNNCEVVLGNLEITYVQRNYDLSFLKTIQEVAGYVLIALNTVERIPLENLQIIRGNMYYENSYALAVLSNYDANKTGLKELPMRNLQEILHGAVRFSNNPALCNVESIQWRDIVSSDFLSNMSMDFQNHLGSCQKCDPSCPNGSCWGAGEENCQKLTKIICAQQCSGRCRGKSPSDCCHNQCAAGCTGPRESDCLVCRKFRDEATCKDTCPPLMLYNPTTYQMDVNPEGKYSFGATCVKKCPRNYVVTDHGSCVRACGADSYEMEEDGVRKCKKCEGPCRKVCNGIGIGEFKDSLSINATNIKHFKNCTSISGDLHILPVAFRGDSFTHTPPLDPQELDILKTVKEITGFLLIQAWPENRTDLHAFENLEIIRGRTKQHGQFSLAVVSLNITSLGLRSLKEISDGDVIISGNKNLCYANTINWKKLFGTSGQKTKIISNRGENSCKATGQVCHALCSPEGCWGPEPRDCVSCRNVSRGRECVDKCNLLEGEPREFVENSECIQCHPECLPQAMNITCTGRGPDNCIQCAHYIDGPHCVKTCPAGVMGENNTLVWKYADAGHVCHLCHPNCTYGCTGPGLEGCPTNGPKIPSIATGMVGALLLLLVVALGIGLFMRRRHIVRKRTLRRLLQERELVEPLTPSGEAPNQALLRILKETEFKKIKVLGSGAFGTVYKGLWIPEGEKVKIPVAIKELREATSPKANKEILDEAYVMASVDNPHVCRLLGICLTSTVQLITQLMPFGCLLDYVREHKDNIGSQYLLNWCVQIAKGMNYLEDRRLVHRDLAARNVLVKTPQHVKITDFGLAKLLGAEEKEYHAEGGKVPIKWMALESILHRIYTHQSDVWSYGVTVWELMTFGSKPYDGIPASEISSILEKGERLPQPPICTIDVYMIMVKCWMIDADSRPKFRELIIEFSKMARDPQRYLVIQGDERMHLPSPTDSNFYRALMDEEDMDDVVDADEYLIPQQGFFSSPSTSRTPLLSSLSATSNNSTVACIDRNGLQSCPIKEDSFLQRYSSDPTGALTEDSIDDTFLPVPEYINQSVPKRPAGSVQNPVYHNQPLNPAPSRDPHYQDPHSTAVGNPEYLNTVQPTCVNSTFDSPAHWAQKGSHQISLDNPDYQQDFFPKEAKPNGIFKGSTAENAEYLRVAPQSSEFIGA

SMILES	IC50 [1]	IC50 [2]
Cc1cc(Nc2ncnc3cc4c(nc23)N2CCN(C(=O)/C=C/CN(C)C)C(CO4)C2)ccc1Oc1cncc(F)c1 (stereo in doubt) [Compound 51, (E)-4-(dimethylamino)-1-((10S)-4-((4-((5-fluoropyridin-3-yl)oxy)-3-methylphenyl)amino)-7,8,10,11-tetrahydro-9H-6,10-methanopyrimido[4′,5′:5,6]pyrido[3,2-b][1,4,7]oxadiazonin-9-yl)but-2-en-1-one]	8.84 nM	177 nM
[2H]C([2H])(/C=C/C(=O)N1CCN2CC1COc1cc3ncnc(Nc4cc(C)c(Oc5ccn6ncnc6c5)cc4F)c3nc12)N(C)C (stereo in doubt) [Compound 58, (E)-1-((10S)-4-((4-([1,2,4]triazolo[1,5-a]pyridin-7-yloxy)-2-fluoro-5-methylphenyl)amino)-7,8,10,11-tetrahydro-9H-6,10-methanopyrimido[4′,5′:5,6]pyrido[3,2-b][1,4,7]oxadiazonin-9-yl)-4-(dimethylamino)but-2-en-1-one-4,4-d2]	5.5 nM	869 nM
[2H]C([2H])([2H])N(C([2H])([2H])[2H])C([2H])([2H])/C=C/C(=O)N1CCN2CC1COc1cc3ncnc(Nc4cc(C)c(Oc5ccn6ncnc6c5)cc4F)c3nc12 (stereo in doubt) [Compound 59, (E)-1-((10S)-4-((4-([1,2,4]triazolo[1,5-a]pyridin-7-yloxy)-2-fluoro-5-methylphenyl)amino)-7,8,10,11-tetrahydro-9H-6,10-methanopyrimido[4′,5′:5,6]pyrido[3,2-b][1,4,7]oxadiazonin-9-yl)-4-(bis(methyl-d3)amino)but-2-en-1-one-4,4-d2]	9 nM	1380 nM

Now from value to molecule:

IC50 [1]	IC50 [2]	SMILES
29.2 nM	> 10000 nM	Cc1cc(Nc2ncnc3cc4c(nc23)N2CCN(C(=O)/C=C/[C@H](C)N(C)C)C(CO4)C2)c(F)cc1Oc1ccn2ncnc2c1 (stereo in doubt) [Compound 47, (4S,E)-1-((10S)-4-((4-([1,2,4]triazolo[1,5-a]pyridin-7-yloxy)-2-fluoro-5-methylphenyl)amino)-7,8,10,11-tetrahydro-9H-6,10-methanopyrimido[4′,5′:5,6]pyrido[3,2-b][1,4,7]oxadiazonin-9-yl)-4-(dimethylamino)pent-2-en-1-one]
31.5 nM	2650 nM	CNC/C=C/C(=O)N1CCN2CC1COc1cc3ncnc(Nc4cc(C)c(Oc5ccn6ncnc6c5)cc4F)c3nc12 (stereo in doubt) [Compound 49, (E)-1-((10S)-4-((4-([1,2,4]triazolo[1,5-a]pyridin-7-yloxy)-2-fluoro-5-methylphenyl)amino)-7,8,10,11-tetrahydro-9H-6,10-methanopyrimido[4′,5′:5,6]pyrido[3,2-b][1,4,7]oxadiazonin-9-yl)-4-(methylamino)but-2-en-1-one]
72.4 nM	> 10000 nM	Cc1cc(Nc2ncnc3cc4c(nc23)N2CCN(C(=O)/C=C/[C@@H](C)N(C)C)C(CO4)C2)c(F)cc1Oc1ccn2ncnc2c1 (stereo in doubt) [Compound 50, (4R,E)-1-((10S)-4-((4-([1,2,4]triazolo[1,5-a]pyridin-7-yloxy)-2-fluoro-5-methylphenyl)amino)-7,8,10,11-tetrahydro-9H-6,10-methanopyrimido[4′,5′:5,6]pyrido[3,2-b][1,4,7]oxadiazonin-9-yl)-4-(dimethylamino)pent-2-en-1-one]
51.1 nM	3390 nM	Cc1cc(Nc2ncnc3cc4c(nc23)N2CCN(C(=O)/C=C/C3(F)CN(C)C3)C(CO4)C2)ccc1Oc1ccn2ncnc2c1 (stereo in doubt) [Compound 53, (E)-1-((10S)-4-((4-([1,2,4]triazolo[1,5-a]pyridin-7-yloxy)-3-methylphenyl)amino)-7,8,10,11-tetrahydro-9H-6,10-methanopyrimido[4′,5′:5,6]pyrido[3,2-b][1,4,7]oxadiazonin-9-yl)-3-(3-fluoro-1-methylazetidin-3-yl)prop-2-en-1-one]
